Measured values taken from ChEMBL document CHEMBL4219066, “Identification and Mitigation of Reactive Metabolites of 2-Aminoimidazole-Containing Microsomal Prostaglandin E Synthase-1 Inhibitors Terminated Due to Clinical Drug-Induced Liver Injury” (J Med Chem, 2018).

Assays:
[1] = Drug metabolism in dog hepatocytes assessed as 2-chloro-5-((3-hydroxy-2,2-dimethylpropanamido)methyl)-N-(1H-imidazol-2-yl)benzamide formation at 2 uM after 4 hrs by LC-MS/MS analysis; format: ADME, cell-based, Canis lupus familiaris, Hepatocyte
[2] = Drug metabolism in rat hepatocytes assessed as 2-chloro-5-((3-hydroxy-2,2-dimethylpropanamido)methyl)-N-(1H-imidazol-2-yl)benzamide formation at 2 uM after 4 hrs by LC-MS/MS analysis; format: ADME, cell-based, Hepatocyte
[3] = Drug metabolism in Beagle dog plasma assessed as 5-(aminomethyl)-2-chloro-N-(1H-imidazol-2-yl)benzamide formation at 300 to 600 mg/kg, po measured after 2 hrs post dose by LC/MS analysis; format: ADME, organism-based, Canis lupus familiaris; conditions: in vivo
[4] = Drug metabolism in dog hepatocytes assessed as N-carbamimidoyl-2-chloro-5-(pivalamidomethyl)benzamide formation at 2 uM after 4 hrs by LC-MS/MS analysis; format: ADME, cell-based, Canis lupus familiaris, Hepatocyte
[5] = Drug metabolism in Sprague-Dawley rat plasma assessed as N-carbamimidoyl-2-chloro-5-(pivalamidomethyl)benzamide formation at 1000 mg/kg, po measured after 2 hrs post dose by LC/MS analysis; format: ADME, organism-based; conditions: in vivo
[6] = In vivo drug metabolism in human urine assessed as N-carbamimidoyl-2-chloro-5-((3-hydroxy-2,2-dimethylpropanamido)methyl)benzamide formation by HPLC-MS analysis; format: ADME, organism-based
[7] = Drug metabolism in Sprague-Dawley rat plasma assessed as 2-chloro-5-((3-hydroxy-2,2-dimethylpropanamido)methyl)-N-(1H-imidazol-2-yl)benzamide formation at 1000 mg/kg, po measured after 2 hrs post dose by LC/MS analysis; format: ADME, organism-based; conditions: in vivo
[8] = Drug metabolism in Beagle dog plasma assessed as N-(6-oxa-2,4-diazabicyclo[3.1.0]hex-3-en-3-yl)-2-chloro-5-(pivalamidomethyl)benzamide formation at 300 to 600 mg/kg, po measured after 2 hrs post dose by LC/MS analysis; format: ADME, organism-based, Canis lupus familiaris; conditions: in vivo
[9] = Drug metabolism in Beagle dog plasma assessed as 2-chloro-N-(4-hydroxy-1H-imidazol-2-yl)-5-(pivalamidomethyl)benzamide formation at 300 to 600 mg/kg, po measured after 2 hrs post dose by LC/MS analysis; format: ADME, organism-based, Canis lupus familiaris; conditions: in vivo
[10] = Drug metabolism in Sprague-Dawley rat plasma assessed as 5-(aminomethyl)-2-chloro-N-(1H-imidazol-2-yl)benzamide formation at 1000 mg/kg, po measured after 2 hrs post dose by LC/MS analysis; format: ADME, organism-based; conditions: in vivo
[11] = Drug metabolism in rat hepatocytes assessed as 2-amino-5-((R)-1-(carboxymethylamino)-3-((2-(2-chloro-5-(pivalamidomethyl)benzamido)-1H-imidazol-5-yl)disulfanyl)-1-oxopropan-2-ylamino)-5-oxopentanoic acid formation at 2 uM after 4 hrs by LC-MS/MS analysis; format: ADME, cell-based, Hepatocyte
[12] = In vivo drug metabolism in human urine assessed as N-carbamimidoyl-2-chloro-5-(pivalamidomethyl)benzamide formation by HPLC-MS analysis; format: ADME, organism-based
[13] = Drug metabolism in human hepatocytes assessed as 2-chloro-5-((3-hydroxy-2,2-dimethylpropanamido)methyl)-N-(1H-imidazol-2-yl)benzamide formation at 2 uM after 4 hrs by LC-MS/MS analysis; format: ADME, cell-based, Hepatocyte
[14] = Drug metabolism in rat hepatocytes assessed as 2-chloro-N-(4,5-dihydroxy-4,5-dihydro-1H-imidazol-2-yl)-5-(pivalamidomethyl)benzamide formation at 2 uM after 4 hrs by LC-MS/MS analysis; format: ADME, cell-based, Hepatocyte
[15] = Drug metabolism in human hepatocytes assessed as 2-chloro-N-(4-hydroxy-1H-imidazol-2-yl)-5-(pivalamidomethyl)benzamide formation at 2 uM after 4 hrs by LC-MS/MS analysis; format: ADME, cell-based, Hepatocyte
[16] = Drug metabolism in rat hepatocytes assessed as N-(6-oxa-2,4-diazabicyclo[3.1.0]hex-3-en-3-yl)-2-chloro-5-(pivalamidomethyl)benzamide formation at 2 uM after 4 hrs by LC-MS/MS analysis; format: ADME, cell-based, Hepatocyte
[17] = Drug metabolism in human liver microsomes assessed as N-(6-oxa-2,4-diazabicyclo[3.1.0]hex-3-en-3-yl)-2-chloro-5-(pivalamidomethyl)benzamide formation at 2 uM in presence of 1:1 ratio of unlabeled GSH and [glycine 13C2,15N]-labelled GSH after 0.5 hrs by HPLC-MS analysis; format: ADME, microsome
[18] = Drug metabolism in Beagle dog plasma assessed as 2-chloro-5-((3-hydroxy-2,2-dimethylpropanamido)methyl)-N-(1H-imidazol-2-yl)benzamide formation at 300 to 600 mg/kg, po measured after 2 hrs post dose by LC/MS analysis; format: ADME, organism-based, Canis lupus familiaris; conditions: in vivo
[19] = Drug metabolism in Sprague-Dawley rat plasma assessed as N-(6-oxa-2,4-diazabicyclo[3.1.0]hex-3-en-3-yl)-2-chloro-5-(pivalamidomethyl)benzamide formation at 1000 mg/kg, po measured after 2 hrs post dose by LC/MS analysis; format: ADME, organism-based; conditions: in vivo
[20] = In vivo drug metabolism in human plasma assessed as N-carbamimidoyl-2-chloro-5-(pivalamidomethyl)benzamide formation by HPLC-MS analysis; format: ADME, organism-based
[21] = Drug metabolism in human hepatocytes assessed as 2-chloro-N-(4,5-dihydroxy-4,5-dihydro-1H-imidazol-2-yl)-5-(pivalamidomethyl)benzamide formation at 2 uM after 4 hrs by LC-MS/MS analysis; format: ADME, cell-based, Hepatocyte
[22] = Drug metabolism in Beagle dog plasma assessed as 2-chloro-N-(4,5-dihydroxy-4,5-dihydro-1H-imidazol-2-yl)-5-(pivalamidomethyl)benzamide formation at 300 to 600 mg/kg, po measured after 2 hrs post dose by LC/MS analysis; format: ADME, organism-based, Canis lupus familiaris; conditions: in vivo
[23] = In vivo drug metabolism in human urine assessed as 2-chloro-N-(4,5-dihydroxy-4,5-dihydro-1H-imidazol-2-yl)-5-(pivalamidomethyl)benzamide formation by HPLC-MS analysis; format: ADME, organism-based
[24] = Drug metabolism in dog hepatocytes assessed as 2-chloro-N-(4-hydroxy-1H-imidazol-2-yl)-5-(pivalamidomethyl)benzamide formation at 2 uM after 4 hrs by LC-MS/MS analysis; format: ADME, cell-based, Canis lupus familiaris, Hepatocyte
[25] = Drug metabolism in Beagle dog plasma assessed as N-carbamimidoyl-2-chloro-5-(pivalamidomethyl)benzamide formation at 300 to 600 mg/kg, po measured after 2 hrs post dose by LC/MS analysis; format: ADME, organism-based, Canis lupus familiaris; conditions: in vivo
[26] = In vivo drug metabolism in human urine assessed as N-(6-oxa-2,4-diazabicyclo[3.1.0]hex-3-en-3-yl)-2-chloro-5-(pivalamidomethyl)benzamide formation by HPLC-MS analysis; format: ADME, organism-based
[27] = In vivo drug metabolism in human urine assessed as 2-chloro-5-((3-hydroxy-2,2-dimethylpropanamido)methyl)-N-(1H-imidazol-2-yl)benzamide formation by HPLC-MS analysis; format: ADME, organism-based
[28] = In vivo drug metabolism in human plasma assessed as 2-chloro-5-((3-hydroxy-2,2-dimethylpropanamido)methyl)-N-(1H-imidazol-2-yl)benzamide formation HPLC-MS analysis; format: ADME, organism-based
[29] = In vivo drug metabolism in human plasma assessed as N-(6-oxa-2,4-diazabicyclo[3.1.0]hex-3-en-3-yl)-2-chloro-5-(pivalamidomethyl)benzamide formation HPLC-MS analysis; format: ADME, organism-based
[30] = In vivo drug metabolism in human plasma assessed as 2-chloro-N-(4-hydroxy-1H-imidazol-2-yl)-5-(pivalamidomethyl)benzamide formation HPLC-MS analysis; format: ADME, organism-based
[31] = Drug metabolism in Sprague-Dawley rat plasma assessed as 2-chloro-N-(4-hydroxy-1H-imidazol-2-yl)-5-(pivalamidomethyl)benzamide formation at 1000 mg/kg, po measured after 2 hrs post dose by LC/MS analysis; format: ADME, organism-based; conditions: in vivo
[32] = In vivo drug metabolism in human urine assessed as 2-chloro-N-(4-hydroxy-1H-imidazol-2-yl)-5-(pivalamidomethyl)benzamide formation by HPLC-MS analysis; format: ADME, organism-based
[33] = Drug metabolism in Sprague-Dawley rat plasma assessed as 2-chloro-5-(pivalamidomethyl)benzoic acid formation at 1000 mg/kg, po measured after 2 hrs post dose by LC/MS analysis; format: ADME, organism-based; conditions: in vivo
[34] = Drug metabolism in human hepatocytes assessed as N-(6-oxa-2,4-diazabicyclo[3.1.0]hex-3-en-3-yl)-2-chloro-5-(pivalamidomethyl)benzamide formation at 2 uM after 4 hrs by LC-MS/MS analysis; format: ADME, cell-based, Hepatocyte
[35] = Drug metabolism in dog hepatocytes assessed as 2-chloro-N-(4,5-dihydroxy-4,5-dihydro-1H-imidazol-2-yl)-5-(pivalamidomethyl)benzamide formation at 2 uM after 4 hrs by LC-MS/MS analysis; format: ADME, cell-based, Canis lupus familiaris, Hepatocyte
[36] = In vivo drug metabolism in human urine assessed as (R)-2-amino-3-((2-(2-chloro-5-(pivalamidomethyl)benzamido)-1H-imidazol-5-yl)disulfanyl)propanoic acid formation by HPLC-MS analysis; format: ADME, organism-based
[37] = Drug metabolism in Sprague-Dawley rat plasma assessed as 2-chloro-N-(4,5-dihydroxy-4,5-dihydro-1H-imidazol-2-yl)-5-(pivalamidomethyl)benzamide formation at 1000 mg/kg, po measured after 2 hrs post dose by LC/MS analysis; format: ADME, organism-based; conditions: in vivo
[38] = Drug metabolism in rat hepatocytes assessed as 2-chloro-N-(4-hydroxy-1H-imidazol-2-yl)-5-(pivalamidomethyl)benzamide formation at 2 uM after 4 hrs by LC-MS/MS analysis; format: ADME, cell-based, Hepatocyte
[39] = Drug metabolism in Beagle dog plasma assessed as 2-chloro-5-(pivalamidomethyl)benzoic acid formation at 300 to 600 mg/kg, po measured after 2 hrs post dose by LC/MS analysis; format: ADME, organism-based, Canis lupus familiaris; conditions: in vivo
[40] = Drug metabolism in dog hepatocytes assessed as N-(6-oxa-2,4-diazabicyclo[3.1.0]hex-3-en-3-yl)-2-chloro-5-(pivalamidomethyl)benzamide formation at 2 uM after 4 hrs by LC-MS/MS analysis; format: ADME, cell-based, Canis lupus familiaris, Hepatocyte

CC(C)(C)C(=O)NCc1ccc(Cl)c(C(=O)Nc2ncc[nH]2)c1 [LY-3031207]
Drug metabolism [1]: Metabolite_Detected | Drug metabolism [2]: Metabolite_Detected | Drug metabolism [3]: Metabolite_Detected | Drug metabolism [4]: Metabolite_Detected | Drug metabolism [5]: Metabolite_Detected | Drug metabolism [6]: Metabolite_Detected | Drug metabolism [7]: Metabolite_Detected | Drug metabolism [8]: Metabolite_Notdetected | Drug metabolism [9]: Metabolite_Detected | Drug metabolism [10]: Metabolite_Detected | Drug metabolism [11]: Metabolite_Detected | Drug metabolism [12]: Metabolite_Detected | Drug metabolism [13]: Metabolite_Detected | Drug metabolism [14]: Metabolite_Detected | Drug metabolism [15]: Metabolite_Detected | Drug metabolism [16]: Metabolite_Notdetected | Drug metabolism [17]: Metabolite_Notdetected | Drug metabolism [18]: Metabolite_Detected | Drug metabolism [19]: Metabolite_Notdetected | Drug metabolism [20]: Metabolite_Detected | Drug metabolism [21]: Metabolite_Detected | Drug metabolism [22]: Metabolite_Detected | Drug metabolism [23]: Metabolite_Detected | Drug metabolism [24]: Metabolite_Detected | Drug metabolism [25]: Metabolite_Detected | Drug metabolism [26]: Metabolite_Notdetected | Drug metabolism [27]: Metabolite_Detected | Drug metabolism [28]: Metabolite_Detected | Drug metabolism [29]: Metabolite_Notdetected | Drug metabolism [30]: Metabolite_Detected | Drug metabolism [31]: Metabolite_Detected | Drug metabolism [32]: Metabolite_Detected | Drug metabolism [33]: Metabolite_Detected | Drug metabolism [34]: Metabolite_Notdetected | Drug metabolism [35]: Metabolite_Detected | Drug metabolism [36]: Metabolite_Detected | Drug metabolism [37]: Metabolite_Detected | Drug metabolism [38]: Metabolite_Detected | Drug metabolism [39]: Metabolite_Detected | Drug metabolism [40]: Metabolite_Notdetected
